Data: paper PMC5581131, “The novel sphingosine-1-phosphate receptors antagonist AD2900 affects lymphocyte activation and inhibits T-cell entry into the lymph nodes” (Oncotarget, 2017)

Experiments:
[1] = target: T1, S1P4 (Homo sapiens, UniProt O95977); assay: S1P4 agonist test, Tango S1P4 (EDG6)-bla U-2 OS cells; assay type: cell-based; conditions: S1P4 TANGO U-2 OS cell line
T1 construct: Tango fusion partner (protease site + GAL4-VP16 transcription factor); expressed in transfected cells; host or cells: Tango S1P4 (EDG6)-bla U-2 OS cells
T1 sequence (O95977 1-384): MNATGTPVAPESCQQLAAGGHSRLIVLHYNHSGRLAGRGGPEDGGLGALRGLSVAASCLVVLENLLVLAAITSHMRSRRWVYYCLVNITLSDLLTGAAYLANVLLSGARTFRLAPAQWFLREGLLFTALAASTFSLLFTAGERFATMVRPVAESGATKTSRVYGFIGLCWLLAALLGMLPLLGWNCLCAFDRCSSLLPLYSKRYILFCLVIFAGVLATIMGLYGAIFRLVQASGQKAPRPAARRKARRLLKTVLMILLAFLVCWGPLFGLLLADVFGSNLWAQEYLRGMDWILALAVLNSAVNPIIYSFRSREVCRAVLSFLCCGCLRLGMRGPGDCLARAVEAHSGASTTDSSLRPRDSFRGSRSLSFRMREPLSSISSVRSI
Method: Since AD2900 is a sphingolipid analogue with properties that resemble those of S1P, we intended to examine its ability to interact with the S1P receptors. To delineate whether AD2900 can function as an agonistic or antagonistic compound to any of the S1P receptors, we used a high-throughput screening cell-based assay, employing cell lines stably transfected with human S1P receptors 1, 2, 3, 4, or 5 [37]. In this experiment, a compound with an IC50 or EC50 value ≤10 μM for a certain S1P receptor is considered active as an antagonist or an agonist, respectively. The results illustrate that AD2900 acts as an antagonist to all S1P receptors (Table 1, Supplementary Figure 3). […] No agonist activation was evident.
The S1P1 agonist test and S1P2, S1P3, S1P4, and S1P5 agonist and antagonist tests were conducted as previously described using S1P1 CRE-bla CHO cells, S1P2 CRE-bla CHO cells, S1P3 NFAT-bla CHO cells, Tango™ S1P4 (EDG6)-bla U-2 OS cells, and Tango™ S1P5 ([…])-bla U-2 OS cells. The S1P1 antagonist assay was carried out according to the manufacturer’s instructions using a Tango™ S1P1 (EDG1)-bla U-2 OS Cell-Based Assay (Invitrogen, NY, USA).

[2] = test system: H9; assay: XTT viability assay, H9; assay type: cell-based, human; conditions: 1-day treatment, compared with Jurkat (>10 μM)
Method: Figure 1 AD2900 inhibits human lymphocyte proliferation in allogeneic activation (A, B) The levels of proliferative response of human peripheral blood lymphocytes (PBMCs) after 1-day pretreatment with different concentrations of AD2900, AD2750, YZ138, YZ158, and YZ297 (A) or AD2900, FTY720, and SEW2871 (B) were tested by human allogeneic mixed lymphocyte reaction (MLR) assay, followed by a [3H] thymidine incorporation analysis. (C) Apoptosis of AD2900-treated activated PBMCs was tested by AnnexinV-propidium iodide (PI) FACS analysis following 1-day AD2900 pretreatment and MLR. All the samples were compared to the untreated PBMC control. (D) IFN-γ secretion from activated PBMCs was tested by ELISA following a 1-day AD2900 pretreatment in MLR. On the 5th day of hMLR, supernatants were collected and assayed for the level of IFN-γ. (E) Jurkat cell viability after a 1-day treatment with different concentrations of AD2900, FTY720, and SEW2871 was tested by XTT viability assay. (F) H9, CEM/C1, and Molt4 cell viability after a 1-day treatment with different concentrations of AD2900 was tested by XTT viability assay. Graphs summarize the results of at least three independent experiments. Results of Student’s t-test: *(P < 0.05, two-tailed test), ** (P < 0.01, two-tailed test), *** (P < 0.001, two-tailed test), **** (P < 0.0001, two-tailed test). […]

With `CCCCCCCCCCCCCCCCNC(CO)(CO)CO` [AD2900] the EC50 [1] was greater than 50 µM and the “cell viability, H9” value [2] was “reduced cell viability could be detected even at lower concentrations”.
